Results: US20260152533A1, “COMBINATION INHIBITORS FOR TREATING FIBROSIS” (Memorial Sloan-Kettering Cancer Center, priority 2021, published 2026)

Key:
[1] = tested on: NIH-3T3 cells; test: Western blot of NIH-3T3 cells (collagen I, GCN2, ATF4, PC); format: cell-based, mouse
Source text: PSCs were isolated from C57BL/6 mice by differential centrifugation as previously described^49 and their mesenchymal origin was validated by analyzing the expression of various mesenchymal and epithelial markers. MFBs were isolated from FVB/N mice by differential centrifugation as previously described^50. DB7 mouse breast cancer cells were obtained from Alexander Borowsky (University of California Davis Comprehensive Cancer Center, Sacramento, CA, USA) through an MTA to Ohio State University (OSU). KPC (Kras^LSL-G12D; Trp53^LSL-R172H; Pdx1-Cre) mouse PDAC cells were a gift from Scott Lowe (Memorial Sloan Kettering Cancer Center. (MSKCC)). All cells were cultured at 37° C. in 5% carbon dioxide (CO2) and 20% oxygen (O2) and were maintained in Dulbecco's Modified Eagles medium (DMEM) (25 mM D-glucose, 2 mM L-glutamine) supplemented with 10% fetal bovine serum (FBS) (Gemini), 100 units/ml penicillin and 100 μg/ml streptomycin. Primary PSC and MFB cells were kept in culture for no more than ten passages. Experiments with iCAFs and myCAFs were performed as previously described^29. In brief, qPSCs were generated by culturing PSCs in a dome of GFR Matrigel (Corning) in DMEM; iCAFs were generated by culturing PSCs in a dome of GFR Matrigel in DMEM conditioned by KPC cells for 48 h; myCAFs were generated by monolayer culture of PSCs. Differentiation was validated by analyzing the expression of iCAF/myCAF markers^29. For experiments with different glutamine concentrations, cells were seeded in regular DMEM and the medium was changed 5-6 hours later or the following day to glucose and glutamine-free DMEM supplemented with 10% dialyzed FBS (Gemini) and 20 mM D-glucose, 2 mM L-glutamine (100%), 0.4 mM L-glutamine (20%) or 0.2 mM L-glutamine (10%). All media were prepared by the Media Preparation Facility at MSKCC. Cells were verified as mycoplasma-free by the MycoAlert Mycoplasma Detection Kit (Lonza).
Lysates were generated by incubating cells or ground tumors in RIPA buffer (Millipore); […] of cleared lysate were analyzed by SDS-polyacrylamide gel electrophoresis (SDS-PAGE) as previously described^11. […] The following secondary antibodies were used: anti-rabbit horseradish peroxidase (HRP) (1:5,000; GE, NA934V), anti-mouse HRP (1:5,000; GE, NA931). Quantification of band intensities of collagen I relative to […] or vinculin in tumor allograft experiments was performed with Image Lab software v6.0 (Bio-Rad).

[2] = tested on: NIH-3T3 cells; details: proliferative fibroblasts, glutaminase inhibition; cited from earlier work
[3] = tested on: pyruvate carboxylase (PC); test: Stable isotope tracing in NIH-3T3 cells (surrogate for PC activity); format: cell-based, mouse
Procedure: Cells were plated in six-well cell culture plates at a concentration aimed to reach 0.5-1×10^6 cells at the time of harvest. For quantification of relative metabolite abundance, cells were cultured with glutamine-free DMEM containing different concentrations of L-glutamine and supplemented with 10% dialyzed FBS and in some experiments were treated with TGFβ for 48 hours. For the [U-^13C]and [3,4-^13C]glucose tracing experiments, cells were cultured as above, and in the last 8 hours media was replaced with DMEM without D-glucose and L-glutamine supplemented with 2 mM or 0.2 mM L-glutamine and 10 mM [U-^13C]or [3,4-^13C]D-glucose (Cambridge Isotope Laboratories) and 10% dialyzed FBS. For the [U-^13C]and [1-^13C]lactate tracing experiments, cells were cultured in 2 or 0.2 mM L-glutamine, 10 or 1 mM D-glucose in the presence or absence of 10 mM sodium lactate, and in the last 8 hours media was replaced with DMEM without D-glucose and L-glutamine supplemented with 2 mM or 0.2 mM L-glutamine, 10 or 1 mM D-glucose, 10 mM [U-^13C]or [1-^13C]sodium lactate (Cambridge Isotope Laboratories) and 10% dialyzed FBS. For relative quantification of metabolites by gas chromatography-mass spectroscopy (GC-MS), cells were washed briefly with PBS, which was then fully aspirated and metabolism was quenched by immediately adding 1 mL of 80:20 methanol:water stored at −80° C. containing 20 μM deuterated 2-hydroxyglutarate (d5-2HG) as an internal standard. For stable isotope tracing experiments, metabolism was quenched without the PBS washing step by adding 1 mL of 80:20 methanol:water as above. After overnight incubation at −80° C., the resulting extracts were scraped on dry ice, transferred into a 1.5 mL centrifuge tube, and centrifuged at 20,000 g for 20 minutes at 4° C. The supernatants were collected in clean tubes and dried in a vacuum evaporator (Genevac EZ-2 Elite) for 2 hours.
For [U-^13C]glucose tracing into proteinogenic amino acids, cells were cultured in 10% Gln in the presence or absence of TGFβ for 48 hours. In the last 24 hours, the media including all treatments was replaced with DMEM without L-glutamine and D-glucose and supplemented with 0.2 mM L-glutamine and 10 mM [U-^13C]D-glucose (Cambridge Isotope Laboratories) and 10% dialyzed FBS. For [U-^13C]lactate tracing into ECM, confluent cells were cultured in 10% Gln in the presence of 10 mM [U-^13C]sodium lactate for 6 days. The media was replaced every other day. ECM was decellularized as described above. Cells and ECM were washed with PBS, and proteins were precipitated with methanol:chloroform:water (1:1:1). The interphase was washed with methanol, and the dried pellet was subjected to acid hydrolysis with 6 N hydrochloric acid (HCl) and incubation at 95° C. for 16 hours. Samples were cooled to room temperature and centrifuged at 20,000 g for 10 minutes. The cleared supernatant was dried in a vacuum evaporator (Genevac EZ-2 Elite) for 2 hours, and abundance of aspartate, glutamate/glutamine or hydroxyproline isotopologues was measured by GC-MS as described below.
GC-MS measurements were performed as described before^11. Ions used for quantification of metabolite levels were as follows: d5-2HG m/z 354; citrate m/z 465; alpha-ketoglutarate m/z 304; succinate m/z 247; fumarate m/z 245; malate m/z 335; aspartate m/z 232; hydroxyproline m/z 332; proline m/z 216; glutamate m/z 246; glutamine m/z 245; lactate m/z 219; pyruvate m/z 174. All peaks were manually inspected and verified relative to known spectra for each metabolite. Peak identification and integration were done with MassHunter software vB.09 (Agilent Technologies). For relative quantification of cell samples, integrated peak areas were normalized to the internal standard d5-2HG and to the packed cell volume of each sample. Absolute quantification of hydroxyproline in tumor acid hydrolysates was performed against a standard curve of commercial trans-4-hydroxy-L-proline (Sigma). […]

[4] = 10% Gln, TGFβ, 48 hours (FIG. 1G)

O=C(Cc1cccc(OC(F)(F)F)c1)Nc1ccc(CCCCc2nnc(NC(=O)Cc3ccccn3)s2)nn1 [CB839]
collagen I protein levels [1, 4]: only marginally increased
rescue of GCN2 activation induced by TGFβ treatment [1, 4]: did not rescue
collagen I levels ([1]; PC-deleted cells (PC sgRNA), CB839, 48 hours (FIG. 4H)): reduced collagen I levels
collagen I levels ([1]; full medium (100% Gln), CB839 1 μM alone, 48 hours (FIG. 4E)): did not affect
Gln-tRNA charging [2]: restored
m+1 labelling of aspartate and pyruvate carboxylation activity from [3,4-13C]Glc ([3]; 100% Gln, CB839, 48 hours (FIG. 4G)): increased
m+3 labelling of TCA cycle intermediates and related NEAAs from [U-13C]Glc ([3]; CB839, 48 hours (FIG. 4F), indicative of anaplerosis via PC): increased
